Laboratory results from patent US9499550B2 (BRISTOL-MYERS SQUIBB COMPANY, priority 2012, dated 2016).
Read-outs that look alike come from different tables or passages of the source.

Tests used:
[1] = system: HCV genotype 1a (H77 strain) replicon in HUH-7 cells; experiment: HCV replicon luciferase reporter assay, genotype 1a; format: cell-based; conditions: Hepatitis C virus, Huh-7, 72 h, 3 days incubation, read-out: LE_1a (EC50, range)
Outline: (§1)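 Replicon inhibition for both genotypes was measured as Renilla luciferase signal (EnduRen, 7.5 μM final, 2 h) after 3-day, 37° C exposure of replicon-bearing HUH-7 cells in 4% FCS DMEM, 0.5% DMSO. The 1b construct carries S1179I; the 1a H77 construct carries P1496L and S2204I. Twenty-point, 3-fold dilutions were fitted four-parametrically for EC50, and CC50 was taken from multiplexed Cell Titer-Blue.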

[2] = system: HCV genotype 1b (Con1) replicon in HUH-7 cells; experiment: HCV replicon luciferase reporter assay, genotype 1b; format: cell-based; conditions: Hepatitis C virus, Huh-7, 72 h, 3 days incubation, read-out: LE_1b (EC50, range)
Outline: as §1

[3] = HCV genotype 1a replicon luciferase assay, range class
[4] = HCV genotype 1b replicon luciferase assay, range class
[5] = GETYPE1A, HCV genotype 1a replicon luciferase
[6] = GETYPE1B, HCV genotype 1b replicon luciferase
[7] = HCV genotype 1a replicon luciferase
[8] = HCV genotype 1b replicon luciferase

Compound	EC50 [1, 3] [nM]	EC50 [2, 4] [nM]	EC50 [1, 7] [nM]	EC50 [2, 8] [nM]	also measured
CC[C@@H]1C[C@@H](C)CC/C=C\[C@@H]2C[C@@]2(C(=O)NS(=O)(=O)C2(C)CC2)NC(=O)[C@@H]2C[C@@H](Oc3nc(OC)cc4cc(OC)ccc34)CN2C(=O)[C@H]1NC(=O)OC1(C(F)(F)F)COC1 [Compound 1121, 3-(trifluoromethyl)oxetan-3-yl((2R,6S,7R,9S,13aS,14aR,16aS,Z)-2-((3,6-dimethoxyisoquinolin-1-yl)oxy)-7-ethyl-9-methyl-14a-(((1-methylcyclopropyl)sulfonyl)carbamoyl)-5,16-dioxo-1,2,3,5,6,7,8,9,10,11,13a,14,14a,15,16,16a-hexadecahydrocyclopropa[e]pyrrolo[1,2-a][1,4]diazacyclopentadecin-6-yl)carbamate]	< 5.46	< 5.46			
COc1cnc(O[C@@H]2C[C@H]3C(=O)N[C@]4(C(=O)NS(=O)(=O)C5(C)CC5)C[C@H]4/C=C\CC[C@@H](C)C[C@@H](C)[C@H](NC(=O)OC(C)(C)C(F)(F)F)C(=O)N3C2)c2cccc(Cl)c12 [Compound 4065]					EC50 [1, 5]: < 5.46 nM; EC50 [2, 6]: < 5.46 nM
CCN(C)c1cc2cc(OC)ccc2c(O[C@@H]2C[C@H]3C(=O)N[C@]4(C(=O)NS(=O)(=O)C5(CF)CC5)C[C@H]4/C=C\CC[C@H](C)C[C@@H](C)[C@H](NC(=O)OC(C)(C)C(F)(F)F)C(=O)N3C2)n1 [Compound 1136, 1,1,1-trifluoro-2-methylpropan-2-yl((2R,6S,7R,9S,13aS,14aR,16aS,Z)-2-((3-(ethyl(methyl)amino)-6-methoxyisoquinolin-1-yl)oxy)-14a-(((1-(fluoromethyl)cyclopropyl)sulfonyl)carbamoyl)-7,9-dimethyl-5,16-dioxo-1,2,3,5,6,7,8,9,10,11,13a,14,14a,15,16,16a-hexadecahydrocyclopropa[e]pyrrolo[1,2-a][1,4]diazacyclopentadecin-6-yl)carbamate]	> 87.4	> 87.4			
COc1ccc2c(O[C@@H]3C[C@H]4C(=O)N[C@]5(C(=O)NS(=O)(=O)C6CC6)C[C@H]5/C=C\CC[C@H](C)C[C@@H](C)[C@H](NC(=O)OC(C)(C)C)C(=O)N4C3)nc(-c3ccc(OC(C)C)cc3)nc2c1 [Compound 3016, tert-butyl ((2R,6S,7R,9S,13aS,14aR,16aS,Z)-14a-((cyclopropylsulfonyl)carbamoyl)-2-((2-(4-isopropoxyphenyl)-7-methoxyquinazolin-4-yl)oxy)-7,9-dimethyl-5,16-dioxo-1,2,3,5,6,7,8,9,10,11,13a,14,14a,15,16,16a-hexadecahydrocyclopropa[e]pyrrolo[1,2-a][1,4]diazacyclopentadecin-6-yl)carbamate]	< 5.46	< 5.46			
COc1cc2ccnc(O[C@@H]3C[C@H]4C(=O)N[C@]5(C(=O)NS(=O)(=O)C6CC6)C[C@H]5/C=C\CC[C@@H](C)C[C@@H](C)[C@H](NC(=O)OC(C)(C)C(F)(F)F)C(=O)N4C3)c2cc1OC [Compound 5387, 1,1,1-trifluoro-2-methylpropan-2-yl((2R,6S,7R,9R,13aS,14aR,16aS,Z)-14a-((cyclopropylsulfonyl)carbamoyl)-2-((6,7-dimethoxyisoquinolin-1-yl)oxy)-7,9-dimethyl-5,16-dioxo-1,2,3,5,6,7,8,9,10,11,13a,14,14a,15,16,16a-hexadecahydrocyclopropa[e]pyrrolo[1,2-a][1,4]diazacyclopentadecin-6-yl)carbamate]			1.01 to 5	1.01 to 5	
[2H]C([2H])([2H])C(C)(OC(=O)N[C@@H]1C(=O)N2C[C@H](Oc3nccc4cc(OC(C)C)ccc34)C[C@H]2C(=O)N[C@]2(C(=O)NS(=O)(=O)C3CC3)C[C@H]2/C=C\CC[C@H](C)C[C@H]1C)C([2H])([2H])[2H] [Compound 5152, 1,1,1,3,3,3-hexadeutero-2-methylpropan-2-yl((2R,6S,7R,9S,13aS,14aR,16aS,Z)-14a-((cyclopropylsulfonyl)carbamoyl)-2-((6-isopropoxyisoquinolin-1-yl)oxy)-7,9-dimethyl-5,16-dioxo-1,2,3,5,6,7,8,9,10,11,13a,14,14a,15,16,16a-hexadecahydrocyclopropa[e]pyrrolo[1,2-a][1,4]diazacyclopentadecin-6-yl)carbamate]			4.82 to 103	4.82 to 103	
COc1ccc2nc(C(C)C)c(O[C@@H]3C[C@H]4C(=O)N[C@]5(C(=O)NS(=O)(=O)C6CC6)C[C@H]5/C=C\CC[C@H](C)C[C@@H](C)[C@H](NC(=O)OC(C)(C)C)C(=O)N4C3)nc2c1 [Compound 4315, tert-butyl ((2R,6S,7R,9S,13aS,14aR,16aS,Z)-14a-((cyclopropylsulfonyl)carbamoyl)-2-((3-isopropyl-7-methoxyquinoxalin-2-yl)oxy)-7,9-dimethyl-5,16-dioxo-1,2,3,5,6,7,8,9,10,11,13a,14,14a,15,16,16a-hexadecahydrocyclopropa[e]pyrrolo[1,2-a][1,4]diazacyclopentadecin-6-yl)carbamate]			5.01 to 35	1.01 to 5	
COc1ccc2c(O[C@@H]3C[C@H]4C(=O)N[C@]5(C(=O)NS(=O)(=O)C6(C)CC6)C[C@H]5/C=C\CC[C@H](C)C[C@@H](C)[C@H](NC(=O)O[C@@H]5C[C@@H]6C[C@@H]6C5)C(=O)N4C3)nc(N(C)C)cc2c1 [Compound 3110, (1R,3r,5S)-bicyclo[3.1.0]hexan-3-yl((2R,6S,7R,9S,13aS,14aR,16aS,Z)-2-((3-(dimethylamino)-6-methoxyisoquinolin-1-yl)oxy)-7,9-dimethyl-14a-(((1-methylcyclopropyl)sulfonyl)carbamoyl)-5,16-dioxo-1,2,3,5,6,7,8,9,10,11,13a,14,14a,15,16,16a-hexadecahydrocyclopropa[e]pyrrolo[1,2-a][1,4]diazacyclopentadecin-6-yl)carbamate]	4.82 to 103	4.82 to 103			
C[C@@H]1CC/C=C\[C@@H]2C[C@@]2(C(=O)NS(=O)(=O)C2(C)CC2)NC(=O)[C@@H]2C[C@@H](Oc3ncc(N4CCOCC4)c4ccccc34)CN2C(=O)[C@@H](NC(=O)OC(C)(C)C)[C@H](C)C1 [Compound 5421, tert-butyl ((2R,6S,7R,9R,13aS,14aR,16aS,Z)-7,9-dimethyl-14a-(((1-methylcyclopropyl)sulfonyl)carbamoyl)-2-((4-morpholinoisoquinolin-1-yl)oxy)-5,16-dioxo-1,2,3,5,6,7,8,9,10,11,13a,14,14a,15,16,16a-hexadecahydrocyclopropa[e]pyrrolo[1,2-a][1,4]diazacyclopentadecin-6-yl)carbamate]			1.01 to 5	0.51 to 1	
CC[C@@H]1C[C@H](C)CC/C=C\[C@@H]2C[C@@]2(C(=O)NS(=O)(=O)C2(CF)CC2)NC(=O)[C@@H]2C[C@@H](Oc3nc4c(c5ccccc35)CCCO4)CN2C(=O)[C@H]1NC(=O)OC(C)(C)C(C)(F)F [Compound 6070, 3,3-difluoro-2-methylbutan-2-yl((2R,6S,7R,9R,13aS,14aR,16aS,Z)-2-((2,3-dihydro-1H-pyrano[2,3-c]isoquinolin-6-yl)oxy)-7-ethyl-14a-(((1-(fluoromethyl)cyclopropyl)sulfonyl)carbamoyl)-9-methyl-5,16-dioxo-1,2,3,5,6,7,8,9,10,11,13a,14,14a,15,16,16a-hexadecahydrocyclopropa[e]pyrrolo[1,2-a][1,4]diazacyclopentadecin-6-yl)carbamate]			1.01 to 5	0.51 to 1	
COc1ccc2c(O[C@@H]3C[C@H]4C(=O)N[C@]5(C(=O)NS(=O)(=O)C6CC6)C[C@H]5/C=C\CC[C@@H](C)C[C@@H](C)[C@H](NC(=O)OC(C)(C)C(F)(F)F)C(=O)N4C3)nc(-c3ccc4c(c3)OCCO4)cc2c1 [Compound 5243, 1,1,1-trifluoro-2-methylpropan-2-yl((2R,6S,7R,9R,13aS,14aR,16aS,Z)-14a-((cyclopropylsulfonyl)carbamoyl)-2-((3-(2,3-dihydrobenzo[b][1,4]dioxin-6-yl)-6-methoxyisoquinolin-1-yl)oxy)-7,9-dimethyl-5,16-dioxo-1,2,3,5,6,7,8,9,10,11,13a,14,14a,15,16,16a-hexadecahydrocyclopropa[e]pyrrolo[1,2-a][1,4]diazacyclopentadecin-6-yl)carbamate]			< 5.46	< 5.46	
COc1ccc2c(O[C@@H]3C[C@H]4C(=O)N[C@]5(C(=O)NS(=O)(=O)C6(C)CC6)C[C@H]5/C=C\CC[C@@H](C)C[C@@H](C)[C@H](NC(=O)OC(C)(C)C(F)(F)F)C(=O)N4C3)ncc(N3CCOCC3)c2c1 [Compound 4135]					EC50 [1, 5]: < 5.46 nM; EC50 [2, 6]: < 5.46 nM
CCn1nc(O[C@@H]2C[C@H]3C(=O)N[C@]4(C(=O)NS(=O)(=O)C5CC5)C[C@H]4/C=C\CC[C@@H](C)C[C@@H](C)[C@H](NC(=O)OC(C)(C)C(F)(F)F)C(=O)N3C2)c2ccccc2c1=O [Compound 5067, 1,1,1-trifluoro-2-methylpropan-2-yl((2R,6S,7R,9R,13aS,14aR,16aS,Z)-14a-((cyclopropylsulfonyl)carbamoyl)-2-((3-ethyl-4-oxo-3,4-dihydrophthalazin-1-yl)oxy)-7,9-dimethyl-5,16-dioxo-1,2,3,5,6,7,8,9,10,11,13a,14,14a,15,16,16a-hexadecahydrocyclopropa[e]pyrrolo[1,2-a][1,4]diazacyclopentadecin-6-yl)carbamate]			4.82 to 103	4.82 to 103	
